{"source": "paper PMC4389225", "about": "“Triaminopyrimidine is a fast-killing and long-acting antimalarial clinical candidate” (Nature Communications, 2015)", "key": {"[1]": {"assay": "3-day rat tolerability study of compound 2", "type": "in vivo", "experimental": "Protein binding (human free) […]\nμM Cmax (total). Consequently, compound 2 was classified as having no therapeutic window preclinically in this model.\nRat 3 Day Toxicology Study: Male Han Wister rats (n=4) received compound 2 at dose levels of 100 or 300 mg/kg for three days (AstraZeneca, Waltham, USA).\nOne animal was found dead, and one considered moribund on the morning of Day 4, before"}, "in vitro": {"assay": "in vitro", "type": "in vitro ADME", "details": "pH 7.4, Michaelis-Menten", "experimental": "Supplementary Note 3: Metabolism of 12 in the presence of mouse (MLM) and human […]\nThe kinetics of metabolism of compound 12 to form the N-demethylated metabolite, 9, was studied by incubating 12 with HLM or MLM. Compound 12 was incubated with 1 mg/mL of pooled liver microsomes at four different compound concentrations (5, 10, 20 and 30 μM) in 166 µL of buffer containing 100 mM phosphate buffer, pH 7.4 and 1 mM NADPH, at 37°C.\nAliquots of 20 µL of incubation mix were quenched with 4 volumes of ice-cold acetonitrile at different time points, i.e., 0, 5, 10, 20 and 30 min in a 96 well microtitre plate. The quenched plate was centrifuged at 4000 rpm for 15 min and 20 µL of the supernatant was diluted to 200 µL with 50% acetonitrile in water. Depletion of 12 and formation of 9 was analysed by LC-MS/MS. Concentrations of 12 and 9 were determined using calibration curves prepared with synthetic standards. Kinetics of metabolite formation or parent depletion is shown in supplementary Fig. 5, Fig. 6 and kinetic parameters are described in supplementary Table […]\nThe rate and extent of metabolite formation in the presence of mouse liver microsomes was […]\nthan in the presence of HLM."}, "[2]": {"assay": "Blood-plasma ratio, human", "type": "in vitro ADME", "from_the_text": "(§1) Supplementary Note 5: Prediction of human clearance for compound 12 by IVIVE.\n(§2) Human clearance (CL) was predicted by in vitro-in vivo extrapolation (IVIVE) from the in vitro Clint in human hepatocytes6. In vitro Clint was scaled to in vivo Clint as follows:\n(§3) Clint in vivo = Clint in vitro * scaling factors * fublood/fuinc\n(§4) The liver weights used for scaling were 40, 32 and 24 g/kg body weight in rat, dog and human respectively. Hepatocellularity used for scaling was 163, 169 and 120 (X 106) cells/g liver in rat, dog and human respectively. Free fraction in blood was calculated as fuplasma /Blood:Plasma (BP) ratio. BP ratio and free fraction in the hepatocyte incubation mix, fuinc, were measured in vitro. Slope and intercept from the linear regression analysis of IVIVC for a large number of AstraZeneca compounds was applied for final correction in the scaled in vivo Clint. A well stirred model was used for CL prediction.\n(§5) Where Qh is the liver blood flow. The values of Qh in rat, dog and human are 72, 55 and 20 mL.min-1kg-1 in rat, dog and human, respectively. In vitro parameters, observed in vivo CL and predicted CL are shown in supplementary Table 10. […]\n(§6) (also on this page, place not known: in vivo in vivo CLintQ CLintQCL Predicted predicted predicted h h + ×=)\n(§7) (1 picture or pasted object on this page, not shown here)"}, "Cpd 4 Unpublished Target": {"test_system": "Cpd 4 Unpublished Target", "assay": "[3H]-hypoxanthine incorporation assay, Cpd 4 Unpublished Target resistant", "type": "cell-based", "details": "Plasmodium falciparum", "experimental": "Supplementary Table 3: Compound 9 and 12 retain their activity against Pf strains harbouring mutations to novel antimalarial agents in clinical development. Compound 9 and 12 were tested for their antiplasmodial activity against a panel of Pf strains known to harbour mutations conferring resistance to novel agents under clinical development. Parasite growth inhibition is measured using the [3H]-hypoxanthine incorporation assay. IC50s are established for each strain (n ≥2) and compared to the IC50 of Dd2 (standard pan-resistant […]"}, "Hepatocyte Clint, human": {"assay": "Hepatocyte Clint, human", "type": "in vitro ADME", "details": "hepatocytes", "from_the_text": "as §1, §2, §3, §4, §5, §6, §7"}, "Caco2 permeability": {"assay": "Caco2 permeability", "details": "human, Caco-2"}, "[3]": {"assay": "Rat blood PK, IV and oral", "type": "in vivo", "details": "for Vd / half-life / clearance / MRT / bioavailability / AUC(0-inf) / AUC(0-t) / Cmax: rat; for bioavailability / AUC(0-inf) / AUC(0-t) / Cmax: 10 mg/kg", "experimental": "Blood samples were collected at 0.083, 0.25, 0.5, 1, 2, 4, 8, 23, 32, 48, 55 and 72 hours after an IV dose of 2 mg/kg or an oral dose of 10 mg/kg. Oral administration was done using oral gavage at a maximum dose volume of 10 mL/kg. Solution formulation containing 10% NMP, 20% DMA in dextrose / normal saline was used for IV administration and a suspension in 0.5% w/v HPMC with 0.1% v/v Tween 80 was used for oral administration. 25 µl of blood samples were mixed with 100 µL of Milli-Q water and vortexed for 5 minutes in the plate shaker at a speed of 900 rpm to ensure complete hemolysis. Proteins were precipitated by adding 125 µL of cold acetonotrile containing internal standard. After extraction on a plate shaker for 10 minutes at 900 rpm, the plate was centrifuged at 4000 rpm for 20 minutes. The supernatant (180 µL) was transferred to another plate and 2.5 µL of Zinc sulphate (200 mM) was added to separate the heme fraction. This mixture was centrifuged and 10 µL of the supernatant was analyzed by LC-MS/MS. […]"}, "[4]": {"details": "Wistar, whole blood, po, Oral 10 mg kg-1, Mean"}, "[5]": {"details": "Wistar, whole blood, po, Oral 10 mg kg-1, Rat 1"}, "[6]": {"details": "Wistar, whole blood, po, Oral 10 mg kg-1, Rat 2"}, "[7]": {"details": "Wistar, whole blood, po, Oral 10 mg kg-1, Rat 3"}}, "note": "Where two headings read alike, the source gives them in different places.", "data": [{"smiles": "Cc1cc(Nc2ncc(N3CCN(C)CC3)c(N3CCCC3)n2)ccn1", "note": "[compound 2]", "values": [{"measurement": "A - Plasma Cmax Total", "setting": "[1]; 100 mg/kg oral", "value": 8130, "unit": "nM"}, {"measurement": "Safety Margin (A / B)", "setting": "[1]; 100 mg/kg oral", "value": "None"}, {"measurement": "Summary of clinical signs and effects", "setting": "[1]; 100 mg/kg oral", "value": "Non-specific toxicity"}, {"measurement": "A - Plasma Cmax Total", "setting": "[1]; 300 mg/kg oral", "value": 19180, "unit": "nM"}, {"measurement": "Safety Margin (A / B)", "setting": "[1]; 300 mg/kg oral", "value": "None"}, {"measurement": "Summary of clinical signs and effects", "setting": "[1]; 300 mg/kg oral", "value": "Premature decedents"}]}, {"smiles": "Cc1nc(Nc2ncc(N3CCN(C)[C@H](C)C3)c(Nc3cc(C)n(C)n3)n2)cc(C2CC2)c1F", "note": "[compound 12, (R)-N2-(4-cyclopropyl-5-fluoro-6-methylpyridin-2-yl)-N4-(1,5-dimethyl-1H-pyrazol-3-yl)-5-(3,4-dimethylpiperazin-1-yl)pyrimidine-2,4-diamine]", "values": [{"measurement": "Km", "setting": "in vitro; human, HLM", "value": 22.5, "unit": "µM"}, {"measurement": "Km", "setting": "in vitro; mouse, MLM", "value": 78.3, "unit": "µM"}, {"measurement": "Observed blood CL", "setting": "Observed blood CL, mouse; Mouse", "value": "32-35 % LBF"}, {"measurement": "clearance", "setting": "Observed blood CL, mouse; mouse, blood", "value": "48 to 53", "unit": "mL/min/kg"}, {"measurement": "B:P ratio", "setting": "[2]", "value": 1.3}, {"measurement": "IC50", "setting": "Cpd 4 Unpublished Target", "value": 8.2, "unit": "nM"}, {"measurement": "hepatocyte CLint", "setting": "Hepatocyte Clint, human", "value": 3.1, "unit": "µL/min/1e6 cells"}, {"measurement": "Papp A→B", "setting": "Caco2 permeability", "value": 25, "unit": "×10⁻⁶ cm/s"}, {"measurement": "Vd", "setting": "[3]; Wistar (rat), Beagle (dog), whole blood (rat), plasma (dog), intravenous, 2 mg/kg, rat and dog, read-out: volume of distribution (Vss)", "value": "10 to 20", "unit": "L/kg"}, {"measurement": "half-life", "setting": "[3]; Wistar (rat), Beagle (dog), whole blood (rat), plasma (dog), iv, 2 mg/kg, intravenous PK, rat and dog, read-out: half-life", "value": "11 to 13", "unit": "h"}, {"measurement": "half-life", "setting": "[3]; Wistar (rat), Beagle (dog), whole blood (rat), plasma (dog), po, oral PK study, rat and dog, read-out: half-life", "value": "14 to 16", "unit": "h"}, {"measurement": "clearance", "setting": "[3]; Wistar, blood, iv, 2 mg/kg, Rat, read-out: Observed blood CL", "value": "5 to 13", "unit": "mL/min/kg"}, {"measurement": "MRT", "setting": "[3]; Wistar, whole blood, iv, 2 mg/kg, IV 2 mg kg-1, Mean", "value": 15.7, "unit": "h"}, {"measurement": "clearance", "setting": "[3]; Wistar, whole blood, iv, 2 mg/kg, IV 2 mg kg-1, Mean, read-out: CL", "value": 9.2, "unit": "mL/min/kg"}, {"measurement": "Vd", "setting": "[3]; Wistar, whole blood, iv, 2 mg/kg, IV 2 mg kg-1, Mean, read-out: Vss", "value": 7.7, "unit": "L/kg"}, {"measurement": "half-life", "setting": "[3]; Wistar, whole blood, iv, 2 mg/kg, IV 2 mg kg-1, Mean, read-out: t½ (converted)", "value": 15.2, "unit": "h"}, {"measurement": "MRT", "setting": "[3]; Wistar, whole blood, iv, 2 mg/kg, IV 2 mg kg-1, Rat 1", "value": 11.8, "unit": "h"}, {"measurement": "clearance", "setting": "[3]; Wistar, whole blood, iv, 2 mg/kg, IV 2 mg kg-1, Rat 1, read-out: CL", "value": 13.1, "unit": "mL/min/kg"}, {"measurement": "Vd", "setting": "[3]; Wistar, whole blood, iv, 2 mg/kg, IV 2 mg kg-1, Rat 1, read-out: Vss", "value": 9.3, "unit": "L/kg"}, {"measurement": "half-life", "setting": "[3]; Wistar, whole blood, iv, 2 mg/kg, IV 2 mg kg-1, Rat 1, read-out: t½ (converted)", "value": 13.5, "unit": "h"}, {"measurement": "MRT", "setting": "[3]; Wistar, whole blood, iv, 2 mg/kg, IV 2 mg kg-1, Rat 2", "value": 22.6, "unit": "h"}, {"measurement": "clearance", "setting": "[3]; Wistar, whole blood, iv, 2 mg/kg, IV 2 mg kg-1, Rat 2, read-out: CL", "value": 4.8, "unit": "mL/min/kg"}, {"measurement": "Vd", "setting": "[3]; Wistar, whole blood, iv, 2 mg/kg, IV 2 mg kg-1, Rat 2, read-out: Vss", "value": 6.6, "unit": "L/kg"}, {"measurement": "half-life", "setting": "[3]; Wistar, whole blood, iv, 2 mg/kg, IV 2 mg kg-1, Rat 2, read-out: t½ (converted)", "value": 19.2, "unit": "h"}, {"measurement": "MRT", "setting": "[3]; Wistar, whole blood, iv, 2 mg/kg, IV 2 mg kg-1, Rat 3", "value": 12.6, "unit": "h"}, {"measurement": "clearance", "setting": "[3]; Wistar, whole blood, iv, 2 mg/kg, IV 2 mg kg-1, Rat 3, read-out: CL", "value": 9.6, "unit": "mL/min/kg"}, {"measurement": "Vd", "setting": "[3]; Wistar, whole blood, iv, 2 mg/kg, IV 2 mg kg-1, Rat 3, read-out: Vss", "value": 7.2, "unit": "L/kg"}, {"measurement": "half-life", "setting": "[3]; Wistar, whole blood, iv, 2 mg/kg, IV 2 mg kg-1, Rat 3, read-out: t½ (converted)", "value": 13, "unit": "h"}, {"measurement": "bioavailability", "setting": "[3]; Wistar, whole blood, oral, read-out: Rat F (bioavailability)", "value": 80, "unit": "%"}, {"measurement": "AUC(0-inf)", "setting": "[3]; [4]", "value": 35.8, "unit": "µM·h"}, {"measurement": "AUC(0-t)", "setting": "[3]; [4]", "value": 34.7, "unit": "µM·h"}, {"measurement": "Cmax", "setting": "[3]; [4]", "value": 2000, "unit": "nM"}, {"measurement": "bioavailability", "setting": "[3]; Wistar, whole blood, po, Oral 10 mg kg-1, Mean, read-out: F", "value": 90, "unit": "%"}, {"measurement": "AUC(0-inf)", "setting": "[3]; [5]", "value": 33.1, "unit": "µM·h"}, {"measurement": "AUC(0-t)", "setting": "[3]; [5]", "value": 31.8, "unit": "µM·h"}, {"measurement": "Cmax", "setting": "[3]; [5]", "value": 1710, "unit": "nM"}, {"measurement": "bioavailability", "setting": "[3]; Wistar, whole blood, po, Oral 10 mg kg-1, Rat 1, read-out: F", "value": 121, "unit": "%"}, {"measurement": "AUC(0-inf)", "setting": "[3]; [6]", "value": 38.4, "unit": "µM·h"}, {"measurement": "AUC(0-t)", "setting": "[3]; [6]", "value": 37.2, "unit": "µM·h"}, {"measurement": "Cmax", "setting": "[3]; [6]", "value": 2210, "unit": "nM"}, {"measurement": "bioavailability", "setting": "[3]; Wistar, whole blood, po, Oral 10 mg kg-1, Rat 2, read-out: F", "value": 52, "unit": "%"}, {"measurement": "AUC(0-inf)", "setting": "[3]; [7]", "value": 36, "unit": "µM·h"}, {"measurement": "AUC(0-t)", "setting": "[3]; [7]", "value": 35.1, "unit": "µM·h"}, {"measurement": "Cmax", "setting": "[3]; [7]", "value": 1990, "unit": "nM"}, {"measurement": "bioavailability", "setting": "[3]; Wistar, whole blood, po, Oral 10 mg kg-1, Rat 3, read-out: F", "value": 96, "unit": "%"}, {"measurement": "Tmax", "setting": "[3]; Wistar, whole blood, Oral 10 mg kg-1, Rat 1", "value": 4, "unit": "h"}, {"measurement": "CL", "setting": "[3]; rat and dog", "value": "< 35", "unit": "% liver blood flow"}]}]}
